Measured values from patent publication US20210062159A1, “CELL AGGREGATION PROMOTER” (KANEKA CORPORATION, priority 2017, published 2021).

How the values were obtained:
Type in all cases: cell-based
[1] = test system: human iPS cells (TkDN4-M cell lines); assay: Glucose consumption of suspension culture (biosensor BF-5iD); conditions: Day 1 to Day 5 of culture, CCG-1423 added condition, FIG. 4
Procedure: A cell suspension was prepared in the same manner as in Example 2, and separately, the cell aggregation promoter was adjusted so that the final concentration of CCG-1423 (same as above) was 4.55 mg/mL (10 mM), then the adjusted cell aggregation promoter was added to the cell suspension so that the final concentration of CCG-1423 was 10 μM, and the cells were seeded at a ratio of 4 mL/well in a 6-well plate for suspension culture (Sumitomo Bakelite Co., Ltd.). The cell-seeded plate was subjected to a swirling culture on a rotary shaker (OPTIMA, Inc.) at a speed of 90 rpm along the horizontal plane to draw a circle with a swirling width (diameter) of 25 mm and cells were cultured in suspension under a condition at 5% CO2 and 37° C. […] While 208 cell aggregates in images obtained at Day 1 of culture being observed and compared using a micrograph scale, the width (referred to as “φ”) of the widest portion of each cell aggregate was measured, distribution thereof was examined, and average±standard deviation was calculated. The concentration of glucose contained in the culture supernatant collected at the time of culture medium exchange was measured with biosensor BF-5iD (Prince Measuring Equipment Co., Ltd.) to calculate glucose consumption.

[2] = test system: human iPS cells (TkDN4-M cell lines); assay: Number of dead cells, Cytotoxicity LDH Assay Kit-WST, Day 1 of suspension culture; conditions: 10 μM CCG-1423, 2.5 μM Y-27632, Day 1 of culture, FIG. 2
Procedure: Human iPS cells that had been cultured using the protocol of Example 1 were treated with Accutase for 3 to 5 minutes and were detached and dispersed to single cells. The resulting cells were suspended in Essential 8™ culture medium containing a final concentration of 5 mg/mL of BSA (Wako Pure Chemical Industries, Ltd.) and a final concentration of 2.5 μM of Y-27632 (Wako Pure Chemical Industries, Ltd.), and a portion thereof was stained with trypan blue and the number of cells was counted. The cell suspension was prepared so as to contain 2×10^5 cells per ml. Separately, the cell aggregation promoter was adjusted so that the final concentration of CCG-1423 (Cayman, 10010350) was 4.55 mg/mL (10 mM), then the adjusted cell aggregation promoter was added to the cell suspension so that the final concentration of CCG-1423 was 10 μM. Then the cells were seeded at a ratio of 1.3 mL/well in a 12-well plate for suspension culture (Sumitomo Bakelite Co., Ltd.). […]
At the next day after the start of culture (Day 1 of culture), images were obtained by phase contrast microscopy, and the number of dead cells was calculated with Cytotoxicity LDH Assay Kit-WST (Peer Chemistry Research Institute, Inc.).

[3] = test system: human iPS cells (TkDN4-M cell lines); assay: Cell aggregation assay, suspension culture, phase contrast microscopy at Day 1; conditions: 10 μM CCG-1423, 2.5 μM Y-27632, Day 1 of culture, 12-well plate, FIG. 1
Procedure: TkDN4-M cell lines (Institute of Medical Science, The University of Tokyo) were used as human iPS cells. Human iPS cells were seeded on cell culture dishes coated with Vitronectin (Thermo Fisher Scientific Co., Ltd.) and subjected to a maintenance culture using Essential 8™ (Thermo Fisher Scientific Co., Ltd.) as the culture medium. Accutase (Thermo Fisher Scientific Co., Ltd.) was used as a cell detachment agent during passage. In addition, when the cells were seeded, Y-27632 (Wako Pure Chemical Industries, Ltd.) at a concentration of 10 μM was added to a culture medium. The culture medium was changed every day. For experiments, human iPS cells (the number of passage was 50 or less) were used.
Human iPS cells that had been cultured using the protocol of Example 1 were treated with Accutase for 3 to 5 minutes and were detached and dispersed to single cells. The resulting cells were suspended in Essential 8™ culture medium containing a final concentration of 5 mg/mL of BSA (Wako Pure Chemical Industries, Ltd.) and a final concentration of 2.5 μM of Y-27632 (Wako Pure Chemical Industries, Ltd.), and a portion thereof was stained with trypan blue and the number of cells was counted. The cell suspension was prepared so as to contain 2×10^5 cells per ml. […]

[4] = test system: human iPS cells (TkDN4-M cell lines); assay: Cell aggregate formation and size (widest portion) in swirling suspension culture, phase contrast microscopy; conditions: for Number of cell aggregates by size / Percentage of cell aggregates by size: CCG-1423 added
Procedure: A cell suspension was prepared in the same manner as in Example 2, and separately, the cell aggregation promoter was adjusted so that the final concentration of CCG-1423 (same as above) was 4.55 mg/mL (10 mM), then the adjusted cell aggregation promoter was added to the cell suspension so that the final concentration of CCG-1423 was 10 μM, and the cells were seeded at a ratio of 4 mL/well in a 6-well plate for suspension culture (Sumitomo Bakelite Co., Ltd.). The cell-seeded plate was subjected to a swirling culture on a rotary shaker (OPTIMA, Inc.) at a speed of 90 rpm along the horizontal plane to draw a circle with a swirling width (diameter) of 25 mm and cells were cultured in suspension under a condition at 5% CO2 and 37° C. After the next day of culture (Day 1 of culture), the culture medium was exchanged daily for a fresh culture medium (Essential 8™ culture medium containing BSA (Wako Pure Chemical Industries, Ltd.) at a final concentration of 5 mg/mL), and the culture continued until 5 days after the start of culture. A control test was conducted by culturing in the same way except for using CCG-1423 and Y-27632 free culture media. Images were obtained by phase contrast microscopy every day during culture. While 208 cell aggregates in images obtained at Day 1 of culture being observed and compared using a micrograph scale, the width (referred to as “φ”) of the widest portion of each cell aggregate was measured, distribution thereof was examined, and average±standard deviation was calculated. The concentration of glucose contained in the culture supernatant collected at the time of culture medium exchange was measured with biosensor BF-5iD (Prince Measuring Equipment Co., Ltd.) to calculate glucose consumption.

[5] = test system: human iPS cells (TkDN4-M cell lines); assay: Cell yield at Day 5 of suspension culture (trypan blue, hemocytometer); conditions: Day 5 of culture, aggregates formed with 10 μM CCG-1423, FIG. 5
Procedure: A cell suspension was prepared in the same manner as in Example 2, and separately, the cell aggregation promoter was adjusted so that the final concentration of CCG-1423 (same as above) was 4.55 mg/mL (10 mM), then the adjusted cell aggregation promoter was added to the cell suspension so that the final concentration of CCG-1423 was 10 μM, and the cells were seeded at a ratio of 4 mL/well in a 6-well plate for suspension culture (Sumitomo Bakelite Co., Ltd.). […] While 208 cell aggregates in images obtained at Day 1 of culture being observed and compared using a micrograph scale, the width (referred to as “φ”) of the widest portion of each cell aggregate was measured, distribution thereof was examined, and average±standard deviation was calculated. The concentration of glucose contained in the culture supernatant collected at the time of culture medium exchange was measured with biosensor BF-5iD (Prince Measuring Equipment Co., Ltd.) to calculate glucose consumption.
In addition, at Day 5 of culture, cell aggregates were collected, dispersed with Accutase, and then suspended in Essential 8™ culture medium containing 5 mg/mL BSA. A portion of this cell suspension was stained with trypan blue and the number of cells was counted. […] The resulting cells were analyzed on FACSVerse. […]
Cell yields were also measured at Day 5 of culture. […]

[6] = test system: human iPS cells (TkDN4-M cell lines); assay: Percentage of cells positive for undifferentiation markers (SOX2, OCT4, Nanog), flow cytometry; conditions: Day 5 of culture, aggregates produced in medium comprising CCG-1423, FIG. 6
Procedure: In addition, at Day 5 of culture, cell aggregates were collected, dispersed with Accutase, and then suspended in Essential 8™ culture medium containing 5 mg/mL BSA. A portion of this cell suspension was stained with trypan blue and the number of cells was counted. After the above cell suspensions were centrifuged at 300 g for 3 minutes, the supernatant was then removed, and the cells were washed with PBS (phosphate buffered saline). Next, the cells were fixed with 4% paraformaldehyde (Wako Pure Chemical Industries, Ltd.) at room temperature for 20 minutes, then washed 3 times with PBS. After cells were resuspended with 300 μL of PBS, 3 mL of cold methanol was added while stirring with voltex, and permeabilized at −20° C. overnight or more. After 3 washes with 3% FBS (fetal bovine serum)/PBS, cells were resuspended with 3% FBS (fetal bovine serum)/PBS and blocked at room temperature for 30 minutes to 1 hour. Subsequently, the cells were stained with fluorescently labeled anti-SOX2 antibodies (Cat. No. 656110, BioLegend, Inc.) and fluorescently labeled anti-OCT4 antibodies (Cat. No. 653703, BioLegend, Inc.) and fluorescently labeled anti-Nanog antibodies (Cat. No. 674010, BioLegend, Inc.) at 4° C. for 30 minutes to 1 hour. After washed once with 3% FBS (fetal bovine serum)/PBS, the cells were made to pass through a cell strainer. The resulting cells were analyzed on FACSVerse. A control test was conducted using cells that were treated in the same way except for reacting, instead of the above three antibodies (fluorescently labeled anti-SOX2 antibody, fluorescently labeled anti-OCT4 antibody, fluorescently labeled anti-Nanog antibody), with three fluorescently labeled isotype control antibodies (Cat. No. 400129, Cat. No. 400314, Cat. No. 400136; BioLegend, Inc.) corresponding to each of the above three antibodies.

[7] = Day 1 of culture, 10 μM CCG-1423
[8] = size range 40- μm, Day 1 of culture
[9] = size range 60- μm, Day 1 of culture
[10] = size range 80- μm, Day 1 of culture
[11] = size range 100- μm, Day 1 of culture
[12] = size range 120- μm, Day 1 of culture
[13] = size range 140- μm, Day 1 of culture
[14] = size range 160- μm, Day 1 of culture
[15] = size range 180- μm, Day 1 of culture
[16] = size range 200- μm, Day 1 of culture
[17] = size range 220- μm, Day 1 of culture
[18] = size range 240- μm, Day 1 of culture
[19] = size range 260- μm, Day 1 of culture
[20] = size range 280- μm, Day 1 of culture
[21] = size range 300- μm, Day 1 of culture

SMILES: CC(ONC(=O)c1cc(C(F)(F)F)cc(C(F)(F)F)c1)C(=O)Nc1ccc(Cl)cc1 (stereo not drawn) [CCG-1423, N-[2-[4(4-chlorophenyl)amino]-1-methyl-2-oxoethoxy]-3,5-bis(trifluoromethyl)-benzamide]
- glucose consumption [1]: increased daily
- number of dead cells compared to the control test (0 μM CCG-1423) [2]: reduced
- cell aggregation compared to the control test (0 μM CCG-1423) [3]: aggregation was promoted
- cell aggregate formation after seeding to Day 1 of culture ([4]; 10 μM CCG-1423, 6-well plate, FIG. 3): cell aggregates were formed
- cell aggregates on continued culture to Day 5 ([4]; 10 μM CCG-1423 until Day 1, then medium exchanged daily, Day 1 to Day 5, FIG. 3): cell aggregates were expanded
- percentage of cell aggregates with size (diameter) 60 μm or more and 300 μm or less [4, 7]: 99.5%
- percentage of cell aggregates with size (diameter) 80 μm or more and 300 μm or less [4, 7]: 98.5%
- percentage of cell aggregates with size (diameter) 100 μm or more and 300 μm or less [4, 7]: 98.5%
- average±standard deviation of cell aggregate size (diameter) ([4]; Day 1 of culture, 10 μM CCG-1423, 208 cell aggregates): 171.3±22.8 μm
- percentage of cell aggregates with size (diameter) 40 μm or more and 300 μm or less ([4]; Day 1 of culture, 10 μM CCG-1423, to total cell aggregate count): 100%
- Number of cell aggregates by size [4, 8]: 1
- Percentage of cell aggregates by size [4, 8]: 0.5%
- Number of cell aggregates by size [4, 9]: 2
- Percentage of cell aggregates by size [4, 9]: 1.0%
- Number of cell aggregates by size [4, 10]: 0
- Percentage of cell aggregates by size [4, 10]: 0.0%
- Number of cell aggregates by size [4, 11]: 2
- Percentage of cell aggregates by size [4, 11]: 1.0%
- Number of cell aggregates by size [4, 12]: 6
- Percentage of cell aggregates by size [4, 12]: 2.9%
- Number of cell aggregates by size [4, 13]: 39
- Percentage of cell aggregates by size [4, 13]: 18.8%
- Number of cell aggregates by size [4, 14]: 87
- Percentage of cell aggregates by size [4, 14]: 41.8%
- Number of cell aggregates by size [4, 15]: 60
- Percentage of cell aggregates by size [4, 15]: 28.8%
- Number of cell aggregates by size [4, 16]: 9
- Percentage of cell aggregates by size [4, 16]: 4.3%
- Number of cell aggregates by size [4, 17]: 2
- Percentage of cell aggregates by size [4, 17]: 1.0%
- Number of cell aggregates by size [4, 18]: 0
- Percentage of cell aggregates by size [4, 18]: 0.0%
- Number of cell aggregates by size [4, 19]: 0
- Percentage of cell aggregates by size [4, 19]: 0.0%
- Number of cell aggregates by size [4, 20]: 0
- Percentage of cell aggregates by size [4, 20]: 0.0%
- Number of cell aggregates by size [4, 21]: 0
- Percentage of cell aggregates by size [4, 21]: 0.0%
- proliferation of the number of seeded cells (8×10^5 cells/well) [5]: approximately 8.5 fold
- percentage of cells positive for Nanog [6]: ≥ 99%
- percentage of cells positive for OCT4 [6]: ≥ 97%
- percentage of cells positive for SOX2 [6]: ≥ 99%
